Data set [1] relates to FAM-labeled phenylalanine aptamer (DNA, aptamer) CTCTCGGGACGACGAGGCTGGATGCATTCGCCGGATGTTCGATGTCGTCCC
The data set is described as follows: strand-displacement fluorescence assay (FAM/dabcyl). The conditions noted are these: PBS (~150 mM salt), 2 mM MgCl2, dabcyl quencher strand GTCGTCCCGAGAG (S4) displaced, 50 nM aptamer, 150 nM quencher, ~40 min, ambient.

Data set [2] relates to Phe peptide (Phe1) (designed). Description: interface nanopore. The conditions noted are these: PBS, 1.5 V, 1.0 uN; thiol for surface coupling (end not stated); OWLS: 1x PBS; nanopore: PBS (~150 mM salt), 0.5-1.5 V; pH and temperature not given.
Data set [3] has as its system Phe peptide (Phe1) (designed). Description: OWLS. Particulars: 1x PBS, thiol for surface coupling (end not stated), OWLS: 1x PBS, nanopore: PBS (~150 mM salt), 0.5-1.5 V, pH and temperature not given.

`NCCc1ccccc1`: the binding entry in data set [1] is recorded as “weak”. As to “ATTGCTATTCACCGGCGCGGGGCTGGGGCATCGGTAAT [scrambled sequence]”, the binding signal (ms translocation time) in data set [2] stood at 11. The binding signal (ng/cm2 adsorbed mass) in data set [3] (attributed to nonspecific electrostatic binding) was 140. In the case of “CGACGAGGCTGGATGCATTCGCCGGATGTTCGATGTCG [phenylalanine aptamer]”, the binding signal (ms translocation time) in data set [2] worked out at 190. The binding signal (ng/cm2 adsorbed mass) in data set [3] (peptide retained after buffer rinse) came out at 198.

`N[C@@H](Cc1ccccc1)C(=O)O`: the binding entry in data set [1] is on record as “yes”. The same measure, in the same setting: with `N[C@@H](Cc1ccc(O)cc1)C(=O)O` the entry was “no”; with `N[C@@H](Cc1c[nH]c2ccccc12)C(=O)O`, “no”. The same measure, in the same setting: with `NC(=O)[C@@H](N)Cc1ccccc1` the entry was “yes”.

(Values after paper PMC10906075 (2024).)
